Laboratory results published in US9814714B2, “Kinase modulation, and indications therefor” (Plexxikon Inc., priority 2015, dated 2017).

What was measured:
NOMO-1 cells = experiment: Growth assay (CellTiter-Glo), NOMO-1; format: cell-based; conditions: Homo sapiens, NOMO-1, 72 h; acute myeloid leukemia; BRAF WT, KRAS-G13D; 3 days
Excerpt: (§1) In order to determine the effects of Formula I on proliferation, a growth assay was established using melanoma cells (A375 and COLO829) and colorectal carcinoma cells (COLO205, HT-29) which each express the BRAFV600E mutation. To show selectivity over wild-type BRAF, several BRAF wild-type cell lines (K562, NOMO-1, MV-4-11 and ML-2) were also examined in the growth assay. The growth assay implemented the Promega CellTiter-Glo Luminescent Cell viability assay, which gives a luminescent readout that is proportional to the amount of ATP present in a cell sample. As ATP levels directly correlate with the number of viable cells, the luminescent signal can be used to determine the potency of Formula I to block the proliferation of the cell lines of interest.
(§2) 1. 3,000 cells were plated in each well for cell lines A375, COLO205, COLO829, HT-29, and SK-MEL-3. 25,000 cells were plated in each well for cell lines K562, ML-2, MV-4-11, and
(§3) NOMO-1 of a 96-well tissue-culture-treated plate (Corning #3610) in a 50 μL volume. Cells were incubated overnight at 37° C.
(§4) 2. Each test compound was plated as an 8-point titration, using 1:3 dilutions in DMSO. The maximum concentration was about 5 mM. Dilute DMSO and test compound of Formula I 1:250 in growth media.
3. […]
(§5) 4. […] Luminescence was measured on a Tecan Safire plate reader. […]

BRAF_V600M = BRAF_V600M (Homo sapiens, UniProt P15056, V600M); experiment: RAF kinase biochemical assay, BRAF V600M; conditions: Table 3; ATP 100 μM
Sequence of BRAF_V600M (P15056 432-726 V600M): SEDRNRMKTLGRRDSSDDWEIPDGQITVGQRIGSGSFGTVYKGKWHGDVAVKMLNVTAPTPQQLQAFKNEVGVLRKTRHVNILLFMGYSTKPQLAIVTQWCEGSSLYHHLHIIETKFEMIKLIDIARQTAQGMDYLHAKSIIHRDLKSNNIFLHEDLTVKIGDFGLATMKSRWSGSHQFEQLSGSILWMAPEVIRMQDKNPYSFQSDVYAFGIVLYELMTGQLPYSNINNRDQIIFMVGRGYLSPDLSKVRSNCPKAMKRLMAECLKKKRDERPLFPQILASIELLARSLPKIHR
Protocol: (§6) BRAF proteins were produced in insect cells at Plexxikon Inc. as N-terminally His-tagged fragments encompassing the kinase domain.
(§7) 1) Test compounds in DMSO were serially diluted and plated into 384-well assay plates at 1 μL/well.
(§8) 2) Added were 15 μL/well of RAF enzyme and biotinylated-MEK1 substrate in kinase buffer.
(§9) 3) Added were 4 μL of ATP (500 μM) in kinase buffer.
(§10) 5) After a brief spin down, the plate was incubated at about room temperature for 40-50 minutes. 6) Added was 5 μL of Stop buffer at final EDTA 20 mM; anti-phospho-MEK1 1:2,500; donor/acceptor beads 3 μg/mL. 7) After brief spin down, the plate was incubated at room temperature for about 3 hours. 8) The plate was read on the Envision multilabel plate reader (Perkin Elmer). […] 2. Results

K562 cells = experiment: Growth assay (CellTiter-Glo), K562; format: cell-based; conditions: Homo sapiens, K562, 72 h; chronic myeloid leukemia; BRAF WT, RAS WT; 3 days
Excerpt: as §1, §2, §3, §4
3. […]
as §5

HT-29 cells = experiment: Growth assay (CellTiter-Glo), HT-29; format: cell-based; conditions: Homo sapiens, HT-29, 72 h; colorectal adenocarcinoma; BRAF V600E/WT, RAS WT; 3 days
Excerpt: as §1, §2, §3, §4
3. […]
as §5

[1] = biological target: NIH/3T3 cells stably expressing KIAA1549-BRAF fusions (Homo sapiens, UniProt P15056); experiment: BRAF fusion xenograft tumor growth; format: in vivo, balb/c nu/nu mice; conditions: all three xenografts (three of the four KIAA1549-BRAF fusions); flank of balb/c nu/nu mice
Sequence of NIH/3T3 cells stably expressing KIAA1549-BRAF fusions (P15056 448-766 limits assumed): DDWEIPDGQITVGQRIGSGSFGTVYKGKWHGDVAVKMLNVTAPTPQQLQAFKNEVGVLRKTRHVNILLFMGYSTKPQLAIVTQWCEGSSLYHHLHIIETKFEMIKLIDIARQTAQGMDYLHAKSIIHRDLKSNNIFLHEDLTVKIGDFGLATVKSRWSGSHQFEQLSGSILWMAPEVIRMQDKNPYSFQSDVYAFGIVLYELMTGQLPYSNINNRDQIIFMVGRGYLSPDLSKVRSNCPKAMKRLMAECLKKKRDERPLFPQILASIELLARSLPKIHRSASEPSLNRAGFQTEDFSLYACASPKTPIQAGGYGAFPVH
Protocol: NIH/3T3 (ATCC® CRL-1658™) cells stably expressing KIAA1549-BRAF fusions (Fusion-1, Fusion-2, Fusion-3, and Fusion-4) were injected into the flank of balb/c nu/nu mice. Tumor growth was measured with calipers. Ellipsoid tumor volume was calculated using the following formula: volume=½·length·width^2.

BRAF_V600R = BRAF_V600R (Homo sapiens, UniProt P15056, V600R); experiment: RAF kinase biochemical assay, BRAF V600R; conditions: Table 3; ATP 100 μM
Sequence of BRAF_V600R (P15056 448-723 V600R): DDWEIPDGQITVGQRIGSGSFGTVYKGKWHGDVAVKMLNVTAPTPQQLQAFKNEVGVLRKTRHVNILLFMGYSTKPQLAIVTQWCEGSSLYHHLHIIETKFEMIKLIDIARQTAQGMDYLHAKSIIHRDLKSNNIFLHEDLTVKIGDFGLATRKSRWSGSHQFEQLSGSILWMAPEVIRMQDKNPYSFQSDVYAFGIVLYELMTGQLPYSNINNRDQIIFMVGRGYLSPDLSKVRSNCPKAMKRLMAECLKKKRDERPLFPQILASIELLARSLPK
Protocol: as §6, §7, §8, §9, §10

BRAF_V600K = BRAF_V600K (Homo sapiens, UniProt P15056, V600K); experiment: RAF kinase biochemical assay, BRAF V600K; conditions: Table 3; ATP 100 μM
Sequence of BRAF_V600K (P15056 448-723 V600K): as the sequence (P15056 448-723 V600R) above, with R153K counted along it
Protocol: as §6, §7, §8, §9, §10

[2] = system: BRAF-V600E in SK-MEL-239 parental cells; experiment: ERK/MEK phosphorylation and growth assays, SK-MEL-239 parental; format: cell-based
[3] = system: BRAF-V600E in vemurafenib-resistant SK-MEL-239 C3 cells
ML-2 cells = experiment: Growth assay (CellTiter-Glo), ML-2; format: cell-based; conditions: Homo sapiens, ML-2, 72 h; acute myelomonocytic leukemia; BRAF WT, KRAS-A146T; 3 days
Excerpt: as §1, §2, §3, §4
3. […]
as §5

[4] = system: pERK in A431 cells (over-expression of EGFR); experiment: pERK levels in A431; format: cell-based; conditions: human SCC cell line
Protocol: (§11) The compound of Formula II was also evaluated in the human SCC cell line A431 and the human breast adenocarcinoma cell line SKBR3 as these cells achieve MAPK pathway activation by upstream signals feeding into RAS (through over-expression of EGFR and HER2, respectively).
(§12) Phospho-ERK AlphaScreen® assay: The degree of ERK phosphorylation was determined using an AlphaScreen® assay where an increase in ERK1/2 phosphorylation at Thr202/Tyr204 brought the donor and acceptor AlphaScreen® beads into close proximity, generating a signal for quantification. To determine the effects of compound treatment on phosphorylation of ERK1/2, cells were plated in a 96-well plate and treated with an 8-point titration of compound for one hour at 37° C. before lysis. To detect pERK, cell lysates were incubated with streptavidin-coated AlphaScreen® donor beads, anti-mouse IgG AlphaScreen® acceptor beads, a biotinylated anti-ERK1/2 rabbit antibody, and a mouse antibody that recognizes ERK1/2 only when it is phosphorylated on Thr202 and Tyr204. […] An increase in ERK1/2 phosphorylation at Thr202/Tyr204 brings the donor and acceptor AlphaScreen® beads into close proximity, generating a signal that can be quantified on an EnVision reader (Perkin Elmer).
(§13) Phospho-ERK immunoblot analysis: Western blots were performed by standard techniques and analyzed on an Odyssey Infrared Scanner (Li-COR Biosciences). […]

[5] = system: pERK in SKBR3 cells (over-expression of HER2); experiment: pERK levels in SKBR3; format: cell-based; conditions: human breast adenocarcinoma cell line
Protocol: as §11, §12, §13

Structure (SMILES) | IC50 (NOMO-1 cells) | IC50 (BRAF_V600M) | IC50 (K562 cells) | IC50 (HT-29 cells) | Inhibition of xenograft growth (tumor volume) [1] | IC50 (BRAF_V600R) | IC50 (BRAF_V600K) | Inhibition of BRAF-V600E in SK-MEL-239 parental (in words) [2] | Inhibition of BRAF-V600E in vemurafenib-resistant C3 (in words) [3] | IC50 (ML-2 cells) | Change of pERK levels in A431 (in words) [4] | Change of pERK levels in SKBR3 (in words) [5]
O=C(c1c(F)ccc(NS(=O)(=O)N2CC[C@@H](F)C2)c1F)c1c[nH]c2ncc(-c3cnc(C4CC4)nc3)cc12 [Formula I, (3R)—N-[3-[5-(2-cyclopropylpyrimidin-5-yl)-1H-pyrrolo[2,3-b]pyridine-3-carbonyl]-2,4-difluorophenyl]-3-fluoropyrrolidine-1-sulfonamide] | > 10000 nM | 9.8 nM | > 10000 nM | 840 nM | ≥ 50% | 3.5 nM | 3.9 nM | potent inhibitor | potent inhibitor | > 10000 nM | – | –
CCN(C)S(=O)(=O)Nc1ccc(F)c(C(=O)c2c[nH]c3ncc(-c4cnc(C5CC5)nc4)cc23)c1F [Formula II, 5-(2-cyclopropylpyrimidin-5-yl)-3-[3-[[ethyl(methyl)sulfamoyl]amino]-2,6-difluoro-benzoyl]-1H-pyrrolo[2,3-b]pyridine] | – | – | – | – | – | – | – | – | – | – | did not increase pERK levels | did not increase pERK levels
